In assay [1] the target is T1, Muscarinic acetylcholine receptor M2 (Mus musculus, UniProt Q9ERZ4).
T1 sequence (Q9ERZ4 whole entry): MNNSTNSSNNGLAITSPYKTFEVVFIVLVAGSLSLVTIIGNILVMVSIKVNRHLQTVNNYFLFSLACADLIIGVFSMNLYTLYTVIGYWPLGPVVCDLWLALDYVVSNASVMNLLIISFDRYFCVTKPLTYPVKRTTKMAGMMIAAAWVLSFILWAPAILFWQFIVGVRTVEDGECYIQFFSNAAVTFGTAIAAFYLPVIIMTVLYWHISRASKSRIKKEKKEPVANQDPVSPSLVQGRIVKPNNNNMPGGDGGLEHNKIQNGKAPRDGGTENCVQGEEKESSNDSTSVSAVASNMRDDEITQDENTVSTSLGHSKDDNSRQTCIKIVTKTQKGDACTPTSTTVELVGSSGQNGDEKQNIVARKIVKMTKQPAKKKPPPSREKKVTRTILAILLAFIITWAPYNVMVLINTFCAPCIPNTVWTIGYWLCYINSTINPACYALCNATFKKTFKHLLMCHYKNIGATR
The experiment in a line: biochemical.
Description: Compound was evaluated for the competitive inhibition of [3H]methylscopolamine binding to Muscarinic acetylcholine receptor M2 of mouse cerebral cortex

Assay [2] has as its target T2, Cholinesterase (Homo sapiens, UniProt P06276).
Description: The compound was evaluated for the inhibition human of Butyrylcholinesterase I
For assay [3], the species on record is Rattus norvegicus.
For assay [4], the target named is T3, Muscarinic acetylcholine receptor M1 (Mus musculus, UniProt P12657).
T3 sequence (P12657 whole entry): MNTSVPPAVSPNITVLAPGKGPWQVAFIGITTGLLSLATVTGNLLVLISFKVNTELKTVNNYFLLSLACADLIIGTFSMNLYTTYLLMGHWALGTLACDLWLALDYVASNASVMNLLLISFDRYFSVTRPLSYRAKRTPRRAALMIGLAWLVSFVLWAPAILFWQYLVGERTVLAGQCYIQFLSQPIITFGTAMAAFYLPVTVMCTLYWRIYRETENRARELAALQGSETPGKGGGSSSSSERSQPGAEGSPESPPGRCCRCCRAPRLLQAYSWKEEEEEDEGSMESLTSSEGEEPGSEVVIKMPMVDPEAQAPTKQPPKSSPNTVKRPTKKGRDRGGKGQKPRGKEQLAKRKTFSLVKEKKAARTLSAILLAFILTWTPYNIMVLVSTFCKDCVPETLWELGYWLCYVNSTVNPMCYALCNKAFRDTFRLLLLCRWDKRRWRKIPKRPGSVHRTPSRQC
The experiment in a line: biochemical.
Description: Compound was evaluated for the competitive inhibition of [3H]pirenzepine binding to Muscarinic acetylcholine receptor M1 of mouse cerebral cortex

Assay [5] addresses T4, Acetylcholinesterase (Homo sapiens, UniProt P22303).
Description: Inhibition of human acetylcholinesterase-I
Assay [6] concerns the target T1, Muscarinic acetylcholine receptor M2. The experiment in a line: biochemical. The source holds these as a separate data set.
Description: Compound was evaluated for the competitive inhibition of [3H]methylscopolamine binding to muscarinic acetylcholine receptor M2 of mouse cerebral cortex
Assay [7] deals with T2, Cholinesterase. This is another data set of the same source.
Description: The compound was evaluated for the inhibition human of Butyrylcholinesterase
Assay [8] concerns the target T5, Muscarinic acetylcholine receptor M2 (Mus musculus) (UniProt Q9ERZ4).
T5 sequence (whole entry): T1 sequence (Q9ERZ4 whole entry)
Description: Selectivity was defined as the ratio between M2-IC50/M1-IC50.

Assay [9] has as its target T3, Muscarinic acetylcholine receptor M1. The experiment in a line: biochemical. The source holds these as a separate data set.
Description: Compound was evaluated for the competitive inhibition of [3H]pirenzepine binding to muscarinic acetylcholine receptor M1 of mouse cerebral cortex
The target of assay [10] is T4, Acetylcholinesterase. This is another data set of the same source.
Description: The compound was evaluated for the inhibition of human Acetylcholinesterase
Assay [11] concerns the target T2, Cholinesterase. The experiment in a line: Ratio of IC50 values obtained for BChE/ AChE.
Assay [12] is filed under the species Rattus norvegicus. Description: Concentration required to potentiate the contraction of isolated rat ileum produced by 1*10e-7 M ACh by 20 percent; IA= inactive. The assay is classed as functional.
The species named for assay [13] is Rattus norvegicus. Description: Concentration required to potentiate the contraction of isolated rat ileum produced by 1*10e-7 M ACh by 20 percent; IA=Inactive. In kind it is functional.
Assay [14] is filed under the species Mus musculus.
Description: Compound was evaluated for the binding affinity by displacing [3H]methylscopolamine ([3H]-NMS) from mouse cerebral cortex tissue.
A short description of assay [15]: NMS/OXO-M values are calculated from the ratio of the respective apparent Ki values.
For assay [16], the species on record is Mus musculus. The source holds these as a separate data set.

SMILES strings stand for the structures. pIC50, pKi: −log10 of the molar value. Active and inactive are the calls of the source.

Broadly, the pIC50 is the negative decadic logarithm of the IC50, by convention in mol/L. Usually pKi stands for the negative decadic logarithm of the Ki, by convention in mol/L. Low readings indicate a large Ki, high ones a small Ki.

T4 sequence (P22303 whole entry): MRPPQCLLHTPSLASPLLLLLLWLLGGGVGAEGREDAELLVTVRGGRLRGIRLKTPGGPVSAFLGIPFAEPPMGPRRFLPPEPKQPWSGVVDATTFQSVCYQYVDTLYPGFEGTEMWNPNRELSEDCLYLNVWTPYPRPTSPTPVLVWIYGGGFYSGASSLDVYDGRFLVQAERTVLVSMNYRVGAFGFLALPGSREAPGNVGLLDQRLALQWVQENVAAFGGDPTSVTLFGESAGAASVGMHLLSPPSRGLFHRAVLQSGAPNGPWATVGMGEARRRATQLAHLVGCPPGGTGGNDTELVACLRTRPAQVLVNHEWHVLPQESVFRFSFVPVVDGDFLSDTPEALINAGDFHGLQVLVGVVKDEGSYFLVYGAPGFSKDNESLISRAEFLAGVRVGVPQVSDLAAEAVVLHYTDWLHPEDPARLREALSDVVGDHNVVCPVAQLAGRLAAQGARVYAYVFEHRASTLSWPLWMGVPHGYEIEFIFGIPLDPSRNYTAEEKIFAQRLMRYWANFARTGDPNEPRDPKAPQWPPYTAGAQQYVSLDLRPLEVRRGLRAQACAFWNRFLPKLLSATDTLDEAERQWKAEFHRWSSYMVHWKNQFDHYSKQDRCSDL
T2 sequence (P06276 whole entry): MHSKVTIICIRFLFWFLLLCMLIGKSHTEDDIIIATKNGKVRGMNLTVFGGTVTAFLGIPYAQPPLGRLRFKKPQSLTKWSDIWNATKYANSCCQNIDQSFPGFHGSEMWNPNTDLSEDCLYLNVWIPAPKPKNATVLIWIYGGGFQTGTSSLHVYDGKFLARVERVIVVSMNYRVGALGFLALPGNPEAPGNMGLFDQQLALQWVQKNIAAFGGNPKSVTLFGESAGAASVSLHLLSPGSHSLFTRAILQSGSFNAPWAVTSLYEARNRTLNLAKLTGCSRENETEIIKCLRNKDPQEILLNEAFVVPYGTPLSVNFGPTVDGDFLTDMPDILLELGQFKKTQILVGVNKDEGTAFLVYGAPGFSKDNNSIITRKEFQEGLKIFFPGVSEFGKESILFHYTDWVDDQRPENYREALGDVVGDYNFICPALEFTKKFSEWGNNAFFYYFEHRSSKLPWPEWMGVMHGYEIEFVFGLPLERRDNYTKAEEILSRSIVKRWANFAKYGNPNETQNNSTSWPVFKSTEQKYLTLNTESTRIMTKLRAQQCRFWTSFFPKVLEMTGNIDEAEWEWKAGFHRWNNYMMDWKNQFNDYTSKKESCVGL

Turning to `CN(C)Cc1ccc(CSCCNC(=NC#N)NCCSCc2ccc(CN(C)C)o2)o1`, the pIC50 was 6.33 in assay [1], 5.62 in assay [2], 6.18 in [4] and 6.54 in assay [5]. Also, in assay [3], the Ileal activity is <0.01 µM.
Take `CN(C)Cc1ccc(CSCCN/C=C(/NCCSCc2ccc(CN(C)C)o2)[N+](=O)[O-])o1`: the pIC50 in assay [6] is 6.30; in [7], 5.89; in assay [9], 6.05; in assay [10] it was 7.13. Further, the Ratio in [8] was 0.55; in assay [11], 18. Also, in assay [3], the Ileal activity was <0.1 µM.
Take `CN(C)Cc1ccc(CSCCCCCCSCc2ccc(CN(C)C)o2)o1`: the pIC50 was 6.24 in [1], 5.54 in assay [2], 6.27 in assay [4] and 6.13 in [5]. Further, in assay [12], the Ileal activity result is “inactive”.
With `CN(C)Cc1ccc(CSCCCCCSCc2ccc(CN(C)C)o2)o1`, the pIC50 in assay [1] is 6.28; in assay [2], 5.44; in assay [4], 6.09; in assay [5], 6.05. In addition, the Ileal activity in assay [3] was <0.1 µM.
The compound `CN(C)Cc1ccc(CSCc2ccccc2CSCc2ccc(CN(C)C)o2)o1` showed a pIC50 in assay [5] of 5.05.
As to `CN(C)Cc1ccc(CSCCCCCCCCSCc2ccc(CN(C)C)o2)o1`, the negative logarithm of the IC50 (pIC50) is 6.27 in assay [6], 5.72 in assay [7], 6.51 in assay [9] and 6.33 in assay [10]. In addition, the Ratio in assay [8] worked out at 1.8; in assay [11], 4. The Ileal activity in [3] is <0.1 µM.
On to `CN(C)Cc1ccc(CSCCNC(=O)NCCSCc2ccc(CN(C)C)o2)o1`, for which the negative-log IC50 (pIC50) in assay [5] is 4.32.
`CN(C)Cc1ccc(CSCCCSCc2ccc(CN(C)C)o2)o1`: the negative logarithm of the IC50 (pIC50) in assay [1] is 5.82; in [2], 5.39; in [4], 5.96; in [5], 6.48. Also, the Ileal activity in assay [3] was <0.1 µM.
As to `CN(C)Cc1ccc(CSCC/N=C/NCCSCc2ccc(CN(C)C)o2)o1`, in assay [5], the pIC50 was 5.52.
The same measure, in the same setting: in the case of `CN(C)Cc1ccc(CSCc2cccc(CSCc3ccc(CN(C)C)o3)c2)o1` it was 5.82.
`CN(C)Cc1ccc(CSCc2ccc(CN(C)C)o2)o1` gave a negative-log IC50 (pIC50) in [5] of 4.36.
For `CN(C)Cc1ccc(CSCCCCCCCCCCSCc2ccc(CN(C)C)o2)o1`, in assay [10], the negative-log IC50 (pIC50) was 5.89.
On to `CN(C)Cc1ccc(CSCc2ccc(CSCc3ccc(CN(C)C)o3)cc2)o1`, for which the pIC50 was 6.26 in assay [1], 5.57 in [2], 6.27 in assay [4] and 6.59 in assay [5]. Further, in assay [12], the Ileal activity result was “inactive”.
Consider `CN(C)Cc1ccc(CSCCCCCCCSCc2ccc(CN(C)C)o2)o1`, for which the negative logarithm of the IC50 (pIC50) in [6] is 6.15; in assay [7], 5.72; in assay [9], 6.39; in assay [10], 6.21. Moreover, in assay [13], the Ileal activity result was “inactive”. Further, the Ratio in assay [8] is 1.7; in assay [11], 3.1.
For `CN(C)Cc1ccc(CSCCNc2cc(NCCSCc3ccc(CN(C)C)o3)c([N+](=O)[O-])cc2[N+](=O)[O-])o1`, the pIC50 is 6.23 in [6], 7.60 in assay [7], 6.31 in [9] and 7.55 in assay [10]. Besides, the Ileal activity in assay [3] was <0.05 µM. The Ratio in assay [11] amounted to 0.89.
In the case of `CN(C)Cc1ccc(CSCc2ccc(-c3ccc(CSCc4ccc(CN(C)C)o4)cc3)cc2)o1`, the negative logarithm of the IC50 (pIC50) in [1] is 5.80; in [2], 5.89; in [4], 6.17; in assay [5] it was 6.74. Besides, the Ileal activity in assay [3] is <0.01 µM.
As for `CN(C)Cc1ccc(CSCCCCSCc2ccc(CN(C)C)o2)o1`, the negative-log IC50 (pIC50) in [1] is 5.66; in assay [2], 5.51; in [4], 6.20; in [5], 6.68. The negative-log Ki (pKi) is 4.70 in [14] and 5.92 in assay [16]. Further, the Ileal activity in [3] was <1 µM. Besides, the Ratio in assay [15] was 17.
For the compound `CN(C)Cc1ccc(CSCCCCCCCCCSCc2ccc(CN(C)C)o2)o1`, the pIC50 is 6.40 in assay [6], 6.00 in assay [7], 6.25 in assay [9] and 6.34 in assay [10]. Also, the figures for the Ratio in [8] and in [11] were 0.71 and 2.2, respectively. In assay [3], the Ileal activity was <0.1 µM.
As for `CNC(=O)Oc1ccc2c(c1)[C@]1(C)CCN(C)[C@@H]1N2C` [PHYSOSTIGMINE], the negative-log IC50 (pIC50) in [6] is 3.80; in assay [9], 4.43. Besides, the Ileal activity in assay [3] is <0.005 µM.
Consider `CN(C)Cc1ccc(CSCCSCc2ccc(CN(C)C)o2)o1`, for which the negative-log IC50 (pIC50) was 5.85 in [1], 5.37 in [2], 5.96 in assay [4] and 6.30 in assay [5]. For the same compound, in [3], the Ileal activity is <0.1 µM.

Source of the values: ChEMBL document CHEMBL1125408 (J Med Chem, 1992).
